Assay results from PMC7253176, “Characterization of the kinetic cycle of an ABC transporter by single-molecule and cryo-EM analyses” (eLife, 2020).

Experiments:
[1] = biological target: T1, bovine multidrug resistance protein 1 (bMRP1) (Bos taurus, UniProt Q8HXQ5); test: biochemical
T1 construct: gene ABCC1

[2] = biological target: T2, bovine multidrug resistance protein 1 (bMRP1) (Bos taurus, UniProt Q8HXQ5, DEL868-879); test: smFRET dose response of IF1 state occupancy (purified protein); also stimulates ATPase activity; format: binding
T2 construct: gene ABCC1; purified WT bMRP1 with S6 peptide replacing residues 868–879 and A1 peptide after V1530, Cy3/LD655-labeled
T2 sequence (Q8HXQ5 1-867, stated change not applied): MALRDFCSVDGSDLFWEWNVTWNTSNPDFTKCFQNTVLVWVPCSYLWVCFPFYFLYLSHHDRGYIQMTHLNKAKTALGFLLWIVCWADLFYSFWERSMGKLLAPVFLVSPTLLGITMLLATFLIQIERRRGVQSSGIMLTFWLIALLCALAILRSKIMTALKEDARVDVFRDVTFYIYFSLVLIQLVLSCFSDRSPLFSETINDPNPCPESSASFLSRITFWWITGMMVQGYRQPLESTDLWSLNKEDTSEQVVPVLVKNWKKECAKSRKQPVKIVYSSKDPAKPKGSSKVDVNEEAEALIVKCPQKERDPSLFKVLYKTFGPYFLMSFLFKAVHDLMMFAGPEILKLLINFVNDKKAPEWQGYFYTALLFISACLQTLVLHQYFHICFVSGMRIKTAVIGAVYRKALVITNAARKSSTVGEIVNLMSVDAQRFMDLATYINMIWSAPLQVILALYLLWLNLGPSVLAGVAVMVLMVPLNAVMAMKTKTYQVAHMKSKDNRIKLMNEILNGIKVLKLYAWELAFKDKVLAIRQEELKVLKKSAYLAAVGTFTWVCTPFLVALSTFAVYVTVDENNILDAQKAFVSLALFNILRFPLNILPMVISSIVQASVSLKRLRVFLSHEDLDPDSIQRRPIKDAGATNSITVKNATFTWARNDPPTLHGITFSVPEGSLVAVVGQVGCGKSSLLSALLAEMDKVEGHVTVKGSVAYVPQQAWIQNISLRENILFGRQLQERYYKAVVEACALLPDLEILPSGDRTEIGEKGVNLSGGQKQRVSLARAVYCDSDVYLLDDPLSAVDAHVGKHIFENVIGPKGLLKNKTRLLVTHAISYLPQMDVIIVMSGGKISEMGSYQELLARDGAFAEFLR
T2 sequence (Q8HXQ5 880-1530, stated change not applied): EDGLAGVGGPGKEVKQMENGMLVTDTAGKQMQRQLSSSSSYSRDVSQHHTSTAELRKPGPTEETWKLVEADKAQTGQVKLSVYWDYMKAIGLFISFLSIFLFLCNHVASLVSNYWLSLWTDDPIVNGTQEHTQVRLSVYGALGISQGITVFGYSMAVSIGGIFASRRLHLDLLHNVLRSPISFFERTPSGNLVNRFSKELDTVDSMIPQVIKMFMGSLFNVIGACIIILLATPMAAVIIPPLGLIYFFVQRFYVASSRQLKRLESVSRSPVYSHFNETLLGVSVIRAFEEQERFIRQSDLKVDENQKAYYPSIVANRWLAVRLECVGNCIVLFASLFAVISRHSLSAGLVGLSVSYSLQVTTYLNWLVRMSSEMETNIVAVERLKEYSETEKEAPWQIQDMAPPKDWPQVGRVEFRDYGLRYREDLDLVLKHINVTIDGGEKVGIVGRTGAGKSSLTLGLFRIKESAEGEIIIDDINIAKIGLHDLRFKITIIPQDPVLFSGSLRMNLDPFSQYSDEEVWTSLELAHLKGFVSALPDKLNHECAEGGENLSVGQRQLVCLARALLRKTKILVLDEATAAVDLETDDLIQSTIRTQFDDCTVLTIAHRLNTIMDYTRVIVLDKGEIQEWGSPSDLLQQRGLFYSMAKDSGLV

T1 sequence (Q8HXQ5 whole entry): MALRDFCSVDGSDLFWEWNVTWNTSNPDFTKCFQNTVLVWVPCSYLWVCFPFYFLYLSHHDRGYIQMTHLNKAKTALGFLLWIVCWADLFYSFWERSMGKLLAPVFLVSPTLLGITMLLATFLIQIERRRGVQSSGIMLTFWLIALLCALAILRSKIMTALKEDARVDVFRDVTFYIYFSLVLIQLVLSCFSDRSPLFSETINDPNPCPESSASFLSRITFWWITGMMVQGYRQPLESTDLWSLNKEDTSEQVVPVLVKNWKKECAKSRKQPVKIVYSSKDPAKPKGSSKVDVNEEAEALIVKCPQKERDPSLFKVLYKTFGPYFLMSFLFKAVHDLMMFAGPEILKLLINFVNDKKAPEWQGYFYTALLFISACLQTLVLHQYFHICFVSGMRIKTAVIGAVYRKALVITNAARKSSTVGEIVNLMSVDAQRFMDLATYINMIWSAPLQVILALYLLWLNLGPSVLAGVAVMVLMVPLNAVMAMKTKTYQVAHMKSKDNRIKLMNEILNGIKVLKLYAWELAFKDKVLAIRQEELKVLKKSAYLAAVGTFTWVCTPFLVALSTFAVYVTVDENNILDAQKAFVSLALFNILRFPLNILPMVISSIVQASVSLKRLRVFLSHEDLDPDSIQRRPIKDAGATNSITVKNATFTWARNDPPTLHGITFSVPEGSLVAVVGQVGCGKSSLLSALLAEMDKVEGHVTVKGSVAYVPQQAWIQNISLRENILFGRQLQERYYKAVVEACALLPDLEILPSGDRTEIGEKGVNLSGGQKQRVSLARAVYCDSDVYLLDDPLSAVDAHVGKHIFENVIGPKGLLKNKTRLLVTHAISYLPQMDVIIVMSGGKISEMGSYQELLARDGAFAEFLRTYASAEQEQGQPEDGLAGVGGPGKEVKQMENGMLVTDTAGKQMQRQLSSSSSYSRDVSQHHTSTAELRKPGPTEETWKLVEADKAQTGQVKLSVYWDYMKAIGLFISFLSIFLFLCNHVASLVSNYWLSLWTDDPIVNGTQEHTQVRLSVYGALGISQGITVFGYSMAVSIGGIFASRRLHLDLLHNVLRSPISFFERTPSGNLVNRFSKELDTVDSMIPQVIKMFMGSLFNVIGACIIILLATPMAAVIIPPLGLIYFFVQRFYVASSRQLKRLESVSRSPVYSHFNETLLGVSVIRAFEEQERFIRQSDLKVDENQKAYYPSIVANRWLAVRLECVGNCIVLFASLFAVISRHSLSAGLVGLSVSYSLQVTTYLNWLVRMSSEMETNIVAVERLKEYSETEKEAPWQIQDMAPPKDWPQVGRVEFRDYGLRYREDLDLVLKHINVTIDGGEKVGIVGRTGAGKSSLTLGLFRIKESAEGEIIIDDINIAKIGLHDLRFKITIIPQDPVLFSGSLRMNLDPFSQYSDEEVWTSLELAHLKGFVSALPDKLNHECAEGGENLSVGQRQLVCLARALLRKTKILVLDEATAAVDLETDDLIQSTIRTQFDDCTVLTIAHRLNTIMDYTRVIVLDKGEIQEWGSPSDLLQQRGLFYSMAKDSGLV

Row | SMILES | EC50 [1] | EC50 [2]
1 | Nc1ncnc2c1ncn2[C@@H]1O[C@H](COP(=O)(O)OP(=O)(O)OP(=O)(O)O)[C@@H](O)[C@H]1O [ATP] | 50 ± 20 µM | 
2 | CCCCC/C=C\C\C=C/C=C/C=C/[C@@H](SC[C@H](NC(=O)CC[C@H](N)C(=O)O)C(=O)NCC(=O)O)[C@@H](O)CCCC(=O)O [Leukotriene C4] |  | 0.32 ± 0.17 µM
